# According to patent EP0137900B1, “Bis-platinum complexes as antitumor agents” (priority 1983, dated 1985):
# Assays:
# [1] = Solubility (water, organic solvents, 1% NaHCO3, basic solutions); details: result in words
# [2] = tested on: murine tumor line L1210 leukemia; experiment: Antitumor screen against murine L1210 leukemia implanted in mice; format: in vivo, CDF1 mice; details: for Percent Increase in Lifespan: start 24 hours after inoculation of 1 x 10^6 L1210 cells in CDF1 mice; for toxic dose: L1210-bearing mice
# [3] = 1% nahco3
# [4] = in water; cited from earlier work
substance,measurement,setting,value
"5,5'-carbonylbistrimellito bis [(1,2-diaminocyclohexane)platinum(II)1 [Example 6]",solubility in 1% NaHC03 solution,[1],dissolves readily
"benzenepentacarboxylatobis[(1,2-diaminocyclohexane) platinum(ll)] [Example 1]",Percent Increase in Lifespan,"[2]; Dose 2.5 mg/kg, Daily x 7, intraperitoneally, in 1% NaHCO3",87%
same,Percent Increase in Lifespan,"[2]; Dose 2.5 mg/kg, schedule 'Drugs 1, 5 and 9' [sic], intraperitoneally",21%
same,Percent Increase in Lifespan,"[2]; Dose 5.0 mg/kg, Daily x 7, intraperitoneally, in 1% NaHCO3",117%
same,Percent Increase in Lifespan,"[2]; Dose 5.0 mg/kg, schedule 'Drugs 1, 5 and 9' [sic], intraperitoneally",43%
same,Percent Increase in Lifespan,"[2]; Dose 10.0 mg/kg, Daily x 7, intraperitoneally, in 1% NaHCO3",61%
same,Percent Increase in Lifespan,"[2]; Dose 10.0 mg/kg, schedule 'Drugs 1, 5 and 9' [sic], intraperitoneally",135%
same,Percent Increase in Lifespan,"[2]; Dose 20.0 mg/kg, schedule 'Drugs 1, 5 and 9' [sic], intraperitoneally",193%
same,toxic dose,[2]; daily x 7 schedule,20 mg/kg
same,toxic dose,"[2]; days 1, 5, 9 schedule",40 mg/kg
same,activity against the experimental murine tumor line L1210 leukemia,"[2]; dose range 2.5-20 mg/kg, result in words",active
same,solubility,[3],greater than 10 mg/ml
cis-[Pt(NH3)2Cl2] [Cisplatin],water solubility,[4],about 1 mg/ml
